These results are taken from patent US11752155B2, “Treatment of autism spectrum disorders, obsessive-compulsive disorder and anxiety disorders” (Rugen Holdings (Cayman) Limited, priority 2016, dated 2023).

In one data set the target is hERG channel (Homo sapiens (Human), UniProt Q12809). Nature of the data set: hERG channel inhibition, whole cell patch clamp in HEK293 cells. To be noted: for inhibition at 5 min, 10 µM: human, HEK293 cells stably expressing hERG channel, pH 7.35. In kind it is cell-based. In general terms: Block of hERG is tested as a sign of cardiac risk.
Sequence of hERG channel (Q12809 whole entry): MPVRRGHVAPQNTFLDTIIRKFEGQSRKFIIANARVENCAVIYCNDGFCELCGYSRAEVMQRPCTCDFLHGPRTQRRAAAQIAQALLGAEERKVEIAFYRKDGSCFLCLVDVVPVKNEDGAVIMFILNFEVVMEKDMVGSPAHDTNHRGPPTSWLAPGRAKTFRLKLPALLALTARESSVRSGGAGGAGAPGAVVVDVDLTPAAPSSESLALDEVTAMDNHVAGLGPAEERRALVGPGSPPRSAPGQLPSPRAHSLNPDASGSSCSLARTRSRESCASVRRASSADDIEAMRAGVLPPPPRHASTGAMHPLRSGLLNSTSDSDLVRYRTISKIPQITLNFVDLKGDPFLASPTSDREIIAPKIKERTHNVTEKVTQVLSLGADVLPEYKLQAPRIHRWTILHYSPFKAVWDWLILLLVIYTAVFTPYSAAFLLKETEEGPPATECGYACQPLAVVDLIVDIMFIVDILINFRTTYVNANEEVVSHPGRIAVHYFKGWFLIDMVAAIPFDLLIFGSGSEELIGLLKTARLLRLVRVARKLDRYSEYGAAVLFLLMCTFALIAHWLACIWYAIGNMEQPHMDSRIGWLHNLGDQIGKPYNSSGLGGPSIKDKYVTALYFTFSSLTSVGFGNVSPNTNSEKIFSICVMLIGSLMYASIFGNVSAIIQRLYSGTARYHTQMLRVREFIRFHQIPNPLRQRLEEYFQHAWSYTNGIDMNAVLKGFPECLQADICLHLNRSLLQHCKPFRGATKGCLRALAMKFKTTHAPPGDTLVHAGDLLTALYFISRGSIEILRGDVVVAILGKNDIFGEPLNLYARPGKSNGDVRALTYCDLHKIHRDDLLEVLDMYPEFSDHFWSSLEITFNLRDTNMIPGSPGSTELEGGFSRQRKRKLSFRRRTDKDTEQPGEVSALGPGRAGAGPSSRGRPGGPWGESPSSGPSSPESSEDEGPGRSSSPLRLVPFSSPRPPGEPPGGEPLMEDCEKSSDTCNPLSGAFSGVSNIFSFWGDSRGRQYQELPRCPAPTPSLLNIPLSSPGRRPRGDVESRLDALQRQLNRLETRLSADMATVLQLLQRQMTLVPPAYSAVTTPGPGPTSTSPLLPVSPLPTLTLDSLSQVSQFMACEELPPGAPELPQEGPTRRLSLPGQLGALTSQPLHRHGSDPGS
The next data set relates to Sapap3 knockout mice. Nature of the data set: Grooming Test in Sapap3 knockout mice. In kind it is in vivo, mouse. To be noted: for tachyphylaxis with repeated weekly dosing: dosed IP on Days 1, 15, 22, 29; for acute effect on excessive self-grooming: single IP dose, Day 1. As for the experimental part: (§1) Animals. The breeding conditions and genotyping methods for Sapap3 and Shank3 complete knockout mice were the same as described in Welch et al. (Nature 2007, 448(7156):894-900) and in Wang et al. (Nat. Commun. 2016, 7:11459), respectively. Homozygous knockout mice and littermate wild type mice of both genders were used at 4 to 8 weeks of age.
(§2) Compound formulation. The test compounds were dissolved in a small volume of dimethyl sulfoxide (DMSO) and diluted in an aqueous solution of 2-hydroxypropyl-beta-cyclodextrin (HP-β-CD) and administered IP. Dosing volume was 10 mL/kg. At 20 minutes after dosing, the mice were subjected to the behavioral test as described below.
(§3) Testing room and apparatus. The test room was maintained under the same conditions as the colony rooms, except the mice were housed in conventional shoe-box cages with food, water, and nesting materials. Animals were housed in the test room 48-72 hours prior to testing, in order to permit the mice to fully acclimate to the test room and conventional housing cages before testing. Tests were conducted in white polyvinyl-fluoride hard-sided foam test arenas (20×20×12 cm). The arenas were indirectly illuminated by dimmable LED light bars placed level with the arena floor and 30 cm away from the external wall of the test arena. This permitted the internal area of the arena to be evenly illuminated at approximately 40 lux. The illumination levels where the mice were housed before testing were about 80-100 lux.
(§4) Testing procedure. Mice were carefully placed into the test arenas 20 minutes after compound administration. Animals were given free exploration of the arena for 10 minutes, after which they were gently sprayed with 4 quick pumps of a water mist (total water volume approximated 1.5-1.7 mL). Mice were then allowed an additional 10 minutes to self-groom and engage in other behaviors before being removed from the arena. All tests were videotaped using cameras mounted above the testing arena and were saved to digital media format using Noldus Media Player software (Noldus Information Technologies, Leesburg, Va.). The mice were only tested once in the acute studies and were repeatedly tested in the sustained effect studies.
(§5) Quantitation of grooming bouts. Analyses of the video recordings were conducted with TopScan behavioral recognition software (Cleversys Inc, Reston, Va.). Configurations were made which scored time spent in grooming. […] These settings permitted automated scoring of grooming by TopScan that corresponded well to manual-scoring of these behaviors by a trained blinded observer using Noldus Observer XT9 (Noldus Information Technologies), with an average corrected kappa of 0.925 (range 0.807-0.983).
(§6) Statistical analyses. Data are presented as means and standard error of the means (SEMs). Analyses were conducted using SPSS 23 (IBM SPSS Statistics, Chicago, Ill.). Time spent in grooming behavior (seconds) over the 10-minute pre- and post-spray time blocks were analyzed with repeated measures analyses of variance (RMANOVA). The pre- and post-spray times were used for the within subject effects and the genotype and compound treatment condition were used as the between subject effects. In sustained effect studies, days were also used for a within subject effect. Some analyses of total groom time were performed in Prism 7.01 (GraphPad Software, La Jolla, Calif.), with one-way ANOVAs to compare genotypes on Day 1 or with RMANOVAs to compare treatment groups within the same genotype across days. Treatments with compounds were compared independently with the vehicle. All post-hoc comparisons were performed with Bonferroni corrections for multiple comparisons to avoid a Type I error. In all cases, a p<0.05 was considered significant.
Next, the effect of two subunit-selective NR2B antagonists administered as a single IP dose and assessed 20 minutes postdose was studied in the Sapap3 knockout mice (n=6-10 mice per treatment group). […]

The test system of data set [1] is wild type littermate mice. Put plainly: Grooming Test in wild type littermates of Sapap3 and Shank3 complete knockout mice. In kind it is in vivo, mouse. To be noted: for effect on grooming on Day 3 / effect on grooming on Day 5: 3 mg/kg IP on Day 1, wild type littermates; for effect on grooming on Day 1: 3 mg/kg IP, wild type littermates; for acute effect on grooming on Day 1: wild type littermates of Sapap3 knockout mice, dose-dependent. How it is done: as §1, §2, §3, §4, §5, §6
The wild type littermates of the Sapap3 knockout and Shank3 complete knockout mice were retested after Day 1 compound administration to determine whether the sustained effects were unique to the knockout mice. […]

Data set [2] has as its system wild type mice (male NMRI). Nature of the data set: Marble Burying Test in wild type mice. The format is in vivo, mouse. A digest of the protocol: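 Male NMRI mice, 12 per group, received compound in 0.5% DMSO/4% HP-β-CD PO or IP 20 min before test. Marbles (25) buried two-thirds or more in sawdust were counted over a blind 30-min session. Groups were compared with vehicle by Kruskal-Wallis then Mann-Whitney U.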

The target in a further data set is CYP2D6 (Homo sapiens (Human), UniProt P10635). Put plainly: CYP P450 enzyme inhibition in pooled human liver microsomes (dextromethorphan probe). The format is in vitro ADME. To be noted: for inhibition at 10 min, 10 µM: human, pooled human liver microsomes, pH 7.4, probe dextromethorphan, 5 μM, read-out: CYP2D6 Inhibiton at 10 μM. As for the experimental part:
Test compound concentration-dependent response studies were performed in triplicate.
In general terms: Microsomes from liver hold many membrane-bound enzymes, among them those of drug oxidation.

[3] abbreviates: single dose 1 mg/kg IP on Day 1.
[4] abbreviates: Mus musculus, ip, read-out: Percent Change in marbles buried relative to vehicle.
The mark [5] stands for this setting: Mus musculus, po, read-out: Percent Change in marbles buried relative to vehicle.

Several values for one entry are separate records, joined by “and”; a condition that tells them apart may be missing. Identical values can stand only once. Entries after “also recorded” stand apart in the source; their conditions may differ. Like-named read-outs stand apart in the source and are kept apart here.

Sequence of CYP2D6 (P10635 whole entry): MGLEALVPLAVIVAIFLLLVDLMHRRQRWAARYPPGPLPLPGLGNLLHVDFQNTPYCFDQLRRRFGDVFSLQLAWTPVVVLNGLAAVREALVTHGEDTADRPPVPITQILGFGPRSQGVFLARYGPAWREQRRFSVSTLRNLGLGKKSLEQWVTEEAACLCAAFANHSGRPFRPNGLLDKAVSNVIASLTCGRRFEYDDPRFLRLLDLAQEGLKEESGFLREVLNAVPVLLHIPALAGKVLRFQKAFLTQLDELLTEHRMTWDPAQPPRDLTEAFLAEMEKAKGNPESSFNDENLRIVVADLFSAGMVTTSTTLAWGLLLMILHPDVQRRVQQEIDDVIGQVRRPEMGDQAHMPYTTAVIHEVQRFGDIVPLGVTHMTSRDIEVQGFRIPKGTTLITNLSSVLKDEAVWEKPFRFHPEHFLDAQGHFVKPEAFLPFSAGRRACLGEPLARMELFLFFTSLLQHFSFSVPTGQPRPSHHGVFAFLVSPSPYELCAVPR
Protocol for hERG channel: The assay was performed on hERG channel stably expressed in HEK293 cells. The cells were cultured at 37° C. in a humidified CO2 incubator in the growth medium consisting of DMEM, 10% fetal bovine serum and antibiotics. Prior to the assay, the cells were seeded onto a 12-mm PDL-coated glass coverslip and cultured in a 35-mm Petri dish. After 16 to 40 hours culture, the coverslip was transferred into the chamber of OctaFlow perfusion system (ALA Instrument) and under a constant flow of extracellular solution (140 mM NaCl, 4 mM KCl, 1 mM MgCl2, 2 mM CaCl2, 10 mM HEPES, 10 mM D-glucose, pH 7.35, osmolarity 290). Whole cell patch clamping was performed with a glass micropipette filled with intracellular solution (120 mM KCl, 1.75 mM MgCl2, 5.4 mM CaCl2, 10 mM HEPES, 10 mM EGTA, and 4 mM ATP-K2, pH 7.2, osmolarity 310). Giga-seal was maintained during the test. The voltage control and current measurement were carried out using Axon amplifier 700B, Digidata 1440A and CLAMPEX10 software (Molecular Devices). Whole-cell hERG currents were recorded following the Petroski protocol: the cell was held at −80 mV, and the voltage step jumped from −80 to 30 mV and stay for 2 seconds with a 20-millisecond prepulse at −40 mV. After depolarization, the voltage was decreased to −40 mV and stay for 2 seconds, and returned back to −80 mV. Test compound was applied by quartz capillary tubes tip (200 m inner diameter), and the flow rate was controlled at 2-3 mL/min with OctaFlow perfusion system. Different concentrations of the compound were applied to the cells for 5 minutes and the hERG current was measured three times before, during and after compound treatment. The data were analyzed using Clampfit 10 software (Molecular Devices) to generate IC50 values.

Turning to `FC(F)c1ccc(C(F)(F)CN2CCC(Nc3ncnc4[nH]ccc34)CC2)cc1` [C-179^A′], on hERG channel (Table 1.3A), half-maximal inhibition (IC50) required 1.4 µM. The “magnitude of the reduction in self-grooming” value (shortened to “magnitude of the reduction”) with Sapap3 knockout mice (1 mg/kg IP, pre-spray) turned out to be 43.6%. Also, in the data set with Sapap3 knockout mice (3 mg/kg IP, pre-spray), the “magnitude of the reduction” value is reported as 80.5%. Also, the “magnitude of the reduction” value in the data set on Sapap3 knockout mice (10 mg/kg IP, pre-spray) was determined as 91.7%. In the data set with Sapap3 knockout mice (1, 3 and 10 mg/kg IP, post-spray), the reductions in self-grooming is on record as 66.9% to 77.6%. The “tachyphylaxis with repeated weekly dosing” value in the data set with Sapap3 knockout mice was “no tachyphylaxis developed; also recorded: tachyphylaxis was not observed”. The “significantly reduced grooming through Day” value with Sapap3 knockout mice (first dose 3 mg/kg IP on Day 1) was found to be 8 days. In addition, the “acute effect on excessive self-grooming” value in the data set with Sapap3 knockout mice (20 min postdose) is reported as “significantly reduced grooming; also recorded: markedly reduced excessive self-grooming”. Also, the “significantly reduced grooming through Day” value with Sapap3 knockout mice (single dose 0.32 mg/kg IP on Day 1) worked out at 5 days. Besides, in the data set with Sapap3 knockout mice (single dose 0.56 mg/kg IP on Day 1), the “significantly reduced grooming through Day” value is 5 days. The “significantly reduced grooming through Day” value in the data set on Sapap3 knockout mice (setting [3]) came to 5 days. In the data set on Sapap3 knockout mice (single dose of 3 mg/kg IP), the “sustained efficacy lasting for” value stood at 1 week. Moreover, in data set [1], the “effect on grooming on Day 3” value was “significantly reduced grooming”, the “effect on grooming on Day 5” value was “comparable to the level in the vehicle-treated group”, the “effect on grooming on Day 1” value is recorded as “significantly reduced grooming” and the “acute effect on grooming on Day 1” value is listed as “significantly reduced grooming”. Further, in data set [2] (setting [4]), the change in vivo at 0.316 mg/kg turned out to be 9%, the change in vivo at 3 mg/kg is -96% and the change in vivo at 10 mg/kg is -94%. In data set [2] (setting [5]), the change in vivo at 1 mg/kg was -1.1%, the change in vivo at 3 mg/kg is -81% and the change in vivo at 10 mg/kg is -99%. The change in vivo at 1.78 mg/kg in data set [2] (Mus musculus, po, 1.78 mg/kg, read-out: Percent Change in marbles buried relative to vehicle) is -81%.
Regarding `Cc1ccc(COC(=O)N2CC[C@H](CNc3nccn4cnnc34)C(F)(F)C2)cc1` [E1-1.2^B′], the IC50 (as a rule, the concentration at which inhibition is half-maximal) on hERG channel (Table 1.3B) was 40 µM. In addition, the inhibition at 5 min, 10 µM against hERG channel came to 17%. The inhibition at 10 min, 10 µM at CYP2D6 is 14%. In addition, the “magnitude of the reduction” value is recorded as 70%-80% in the data set with Sapap3 knockout mice (3 mg/kg IP, 20 min postdose, pre- and post-spray); greater than 90% in the data set with Sapap3 knockout mice (10 mg/kg IP, 20 min postdose, pre- and post-spray); greater than 90% in the data set on Sapap3 knockout mice (30 mg/kg IP, 20 min postdose, pre- and post-spray). Besides, in the data set with Sapap3 knockout mice (20 min postdose), the “acute effect on excessive self-grooming” value is “markedly reduced excessive self-grooming”.
Regarding `Cc1ccc(COC(=O)N2CC[C@H](CNc3cnc(C)cn3)C(F)(F)C2)cc1` [E1-21.26^B′], the inhibition at 5 min, 10 µM against hERG channel came to 39%. Moreover, at CYP2D6, the inhibition at 10 min, 10 µM worked out at 32%. Further, the “effects lasting through Day after the fourth and final dose on Day 29” value in the data set on Sapap3 knockout mice (3 mg/kg IP on Days 1, 15, 22, 29) is 40 days. For the same compound, the “effects lasting through Day after the fourth and final dose on Day 29” value in the data set on Sapap3 knockout mice (10 mg/kg IP on Days 1, 15, 22, 29) stood at 43 days. In the data set on Sapap3 knockout mice, the “tachyphylaxis with repeated weekly dosing” value is listed as “without tachyphylaxis”. For the same compound, the “significantly reduced grooming through Day” value with Sapap3 knockout mice (first dose 3 mg/kg IP on Day 1) came to 5 days. In the data set with Sapap3 knockout mice (first dose of 3 mg/kg IP), the “significant reduction in grooming wore off by Day” value was 8 days. Moreover, the “acute effect on excessive self-grooming” value in the data set with Sapap3 knockout mice (20 min postdose) is given as “significantly reduced grooming”. Further, in data set [1], the “acute effect on grooming on Day 1” value is “significantly reduced grooming”. Further, in data set [2] (setting [4]), the change in vivo at 0.316 mg/kg was -14%, the change in vivo at 3 mg/kg was -97% and the change in vivo at 10 mg/kg was -96%. In addition, in data set [2] (setting [5]), the change in vivo at 1 mg/kg was determined as 8%, the change in vivo at 3 mg/kg is -41% and the change in vivo at 10 mg/kg is -78%.
`Cc1ccc(COC(=O)N2CC[C@H](CNc3ncccn3)C(F)(F)C2)cc1` [E1-22.2^B′]: at hERG channel (Table 1.3B), the 50% inhibitory concentration (IC50) was > 10 µM and 17 µM. Besides, the IC50 against CYP2D6 (Table 1.4B) is greater than 50 µM. Besides, the “significantly reduced grooming through Day” value with Sapap3 knockout mice (first dose 3 mg/kg IP on Day 1) was 22 days. Also, the “acute effect on excessive self-grooming” value in the data set on Sapap3 knockout mice (20 min postdose) was “significantly reduced grooming”. In addition, the “significantly reduced grooming through Day” value in the data set on Sapap3 knockout mice (setting [3]) is 19 days. Besides, in data set [1], the “effect on grooming on Day 3” value is reported as “significantly reduced grooming”, the “effect on grooming on Day 5” value is “comparable to the level in the vehicle-treated group”, the “effect on grooming on Day 1” value is given as “significantly reduced grooming” and the “acute effect on grooming on Day 1” value was “significantly reduced grooming”. Further, the change in vivo at 0.03 mg/kg in data set [2] (Mus musculus, ip, 0.03 mg/kg, read-out: Percent Change in marbles buried relative to vehicle) is -9%. Further, in data set [2] (setting [4]), the change in vivo at 0.1 mg/kg was -13%, the change in vivo at 0.3 mg/kg was -92%, the change in vivo at 0.316 mg/kg is -68% and the change in vivo at 3 mg/kg was -93%. In data set [2] (setting [4]), the change in vivo at 10 mg/kg was -97%. Moreover, in data set [2] (setting [5]), the change in vivo at 0.1 mg/kg is 14%, the change in vivo at 0.3 mg/kg was 16%, the change in vivo at 3 mg/kg was -88% and the change in vivo at 10 mg/kg is -99%. Further, in data set [2] (lowest test concentration of 1 mg/kg, IP), the “efficacy in the Marble Burying Test” value is on record as “fully efficacious”.
